Key:
Format in all cases: ADME
[1] = Drug uptake in C57BL/6J mouse neuronal cytosol at 100 uM after 1 min by confocal microscopy co-treated with 20 uM 2-TRLG
[2] = Drug uptake in C57BL/6J mouse neuronal cytosol at 20 uM after 1 min by confocal microscopy co-treated with 100 uM 2-NBDLG
[3] = Drug uptake in C57BL/6J mouse neuronal cytosol at 20 uM after 1 min by confocal microscopy co-treated with 100 uM 2-NBDG

SMILES: O=[N+]([O-])c1ccc(N[C@H]2C(O)O[C@H](CO)[C@@H](O)[C@@H]2O)c2nonc12 (stereo partly specified)
- Drug uptake [1]: Active

SMILES: O=S(=O)([O-])c1cc(S(=O)(=O)N[C@@H]2C(O)O[C@@H](CO)[C@H](O)[C@H]2O)ccc1C1=c2cc3c4c(c2Oc2c1cc1c5c2CCCN5CCC1)CCC[N+]=4CCC3 (stereo partly specified)
- Drug uptake [2]: Active
- Drug uptake [3]: Not Active

SMILES: O=S(=O)([O-])c1ccc(C2=c3cc4c5c(c3Oc3c2cc2c6c3CCCN6CCC2)CCC[N+]=5CCC4)c(S(=O)(=O)N[C@@H]2C(O)O[C@@H](CO)[C@H](O)[C@H]2O)c1 (stereo partly specified)
- Drug uptake [2]: Active
- Drug uptake [3]: Not Active

SMILES: O=[N+]([O-])c1ccc(N[C@@H]2C(O)O[C@@H](CO)[C@H](O)[C@H]2O)c2nonc12 (stereo partly specified)
- Drug uptake [1]: Not Active
